Assay results from patent US9982005B2, “Macrolides and methods of their preparation and use” (President and Fellows of Harvard College, priority 2013, dated 2018).
Converted amounts (≈) assume the structure as drawn. Read-outs that look alike come from different tables or passages of the source.

Experiments:
Assay type in all cases: cell-based
[1] = system: S. pneumoniae strains; assay: MIC against S. pneumoniae strains (Tables M7, M8); conditions: Streptococcus pneumoniae
Excerpt: CLSI standard procedures for broth dilution MIC determination were used. […] These genotypes can be constitutive or inducible.

[2] = system: H. influenzae strains; assay: MIC against H. influenzae strains (Table M8); conditions: Haemophilus influenzae
Summary of the method: (§1)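 CLSI broth dilution; MIC read-out. Azithromycin run as reference macrolide.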

[3] = system: E. coli strains; assay: MIC against E. coli strains (Table M7); conditions: Escherichia coli, ATCC25922, E. coli ATCC 25922
Summary of the method: as §1

[4] = system: E. faecalis strains; assay: MIC against E. faecalis strains (Table M8); conditions: Enterococcus faecalis, E. faecalis 29212
[5] = system: A. baumannii strains; assay: MIC against A. baumannii strains (Table M8); conditions: Acinetobacter baumannii, BAA747, A. baumannii BAA747-1
[6] = system: K. pneumoniae strains; assay: MIC against K. pneumoniae strains (Table M8); conditions: Klebsiella pneumoniae, K. pneumoniae 10031
[7] = system: S. aureus strains; assay: MIC against S. aureus strains (Table M7); conditions: Staphylococcus aureus
Summary of the method: as §1

[8] = system: S. aureus (Newman, clinical isolate); assay: MIC, S. aureus Newman; conditions: Staphylococcus aureus
Excerpt: (§2) We have collected MIC data for a total of 50 novel macrolides that this platform has produced against over 21 unique strains of B. subtilis, E. coli, S. aureus, S. pneumoniae, and H. influenzae, including several multidrug-resistant strains, with a special focus on macrolide resistant mechanisms (vide supra). Azithromycin was included as a control macrolide. CLSI standard procedures for broth dilution MIC determination were used. […] These genotypes can be constitutive or inducible. The finding that C4-epi (unnatural) isomers of the “azaketolide” macrolide class have enhanced activities relative to C4 natural isomers is very exciting.

[9] = system: E. coli (MC4100); assay: MIC, E. coli MC4100
Excerpt: as §2

[10] = S. pneumoniae 160, read-out: MIC S. pneumonae (160)
[11] = S. pneumoniae 1509, read-out: MIC S. pneumoniae (1509)
[12] = S. pneumoniae 1533, read-out: MIC S. pneumoniae (1533)
[13] = S. pneumoniae 1537, read-out: MIC S. pneumoniae (1537)
[14] = S. pneumoniae 49619, read-out: MIC S. pneumoniae (49619)
[15] = H. influenzae 49247, read-out: MIC H. influenzae (49247)
[16] = H. influenzae 49766, read-out: MIC H. influenzae (49766)
[17] = ATCC29213, S. aureus ATCC 29213, read-out: MIC S. aureus (ATCC 29213)
[18] = S. aureus 506, read-out: MIC S. aureus (506)
[19] = S. aureus 1708, read-out: MIC S. aureus (1708)
[20] = USA300, S. aureus USA300, read-out: MIC S. aureus (USA300)
[21] = S. aureus (Neuman, clinical isolate), round 2
[22] = Escherichia coli, round 2, read-out: MIC
[23] = S. aureus (Newman, clinical isolate), round 1
[24] = Escherichia coli, round 1, read-out: MIC

| Compound | MIC [1, 10] | MIC [1, 11] | MIC [1, 12] | MIC [1, 13] | MIC [1, 14] | MIC [2, 15] | MIC [2, 16] | MIC [3] | MIC [4] | MIC [5] | MIC [6] | MIC [7, 17] | MIC [7, 18] | MIC [7, 19] | MIC [7, 20] | MIC [8, 21] | MIC [9, 22] | MIC [8, 23] | MIC [9, 24] | also measured |
| --- | --- | --- | --- | --- | --- | --- | --- | --- | --- | --- | --- | --- | --- | --- | --- | --- | --- | --- | --- | --- |
| CC[C@H]1OC(=O)[C@H](C)C(=O)[C@H](C)[C@@H](O[C@@H]2OC(C)CC(N(C)C)C2O)[C@](C)(OC/C=C/c2cnc3ccccc3c2)C[C@@H](C)CN[C@H](C)[C@H]2NC(=O)O[C@@]21C (stereo partly drawn) [FSM-20919] | ≤ 0.0625 µg/mL | 0.5 µg/mL (≈ 0.652 µM) | 32 µg/mL (≈ 41.7 µM) | 32 µg/mL (≈ 41.7 µM) | ≤ 0.0625 µg/mL | 1 µg/mL (≈ 1.3 µM) | 4 µg/mL (≈ 5.22 µM) | 4 µg/mL (≈ 5.22 µM) | 0.5 µg/mL (≈ 0.652 µM) | 16 µg/mL (≈ 20.9 µM) | 16 µg/mL (≈ 20.9 µM) | 0.25 µg/mL (≈ 0.326 µM) | > 32 µg/mL | 0.25 µg/mL (≈ 0.326 µM) | 0.5 µg/mL (≈ 0.652 µM) | 0.5 µg/mL (≈ 0.652 µM) | – | 0.25 µg/mL (≈ 0.326 µM) | 2 µg/mL (≈ 2.61 µM) | MIC ([7]; S. aureus 183, read-out: MIC S. aureus (183)): > 32 µg/mL; MIC ([9]; round 2): 2 µg/mL (≈ 2.61 µM) |
| CC[C@H]1OC(=O)[C@H](C)C(=O)[C@H](C)[C@@H](O[C@@H]2OC(C)CC(N(C)C)C2O)[C@](C)(OC)C[C@@H](C)CN[C@H](C)[C@H]2N(CCCn3cc(-c4ccccn4)nn3)C(=O)O[C@]12C (stereo partly drawn) [FSM-40348] | – | – | – | – | – | – | – | – | – | – | – | – | – | – | – | – | – | 8 µg/mL (≈ 10 µM) | > 32 µg/mL | – |
| CC[C@H]1OC(=O)[C@H](C)C(=O)[C@H](C)[C@@H](O[C@@H]2OC(C)CC(N(C)C)C2O)/C(C)=C/CN(C)[C@H](C)[C@H]2N(CCCCn3cc(-c4cccc(N)c4)nn3)C(=O)O[C@]12C (stereo partly drawn) [FSM-30633] | > 32 µg/mL | > 32 µg/mL | > 32 µg/mL | > 32 µg/mL | > 32 µg/mL | 32 µg/mL (≈ 40.9 µM) | > 32 µg/mL | > 32 µg/mL | > 32 µg/mL | > 32 µg/mL | > 32 µg/mL | > 32 µg/mL | > 32 µg/mL | > 32 µg/mL | > 32 µg/mL | > 32 µg/mL | > 32 µg/mL | – | – | – |
| CC[C@H]1OC(=O)[C@H](C)C(=O)[C@H](C)[C@@H](O[C@@H]2OC(C)CC(N(C)C)C2O)/C(C)=C/CN[C@H](C)[C@H]2N(CCCCn3cc(-c4ccccn4)nn3)C(=O)O[C@]12C (stereo partly drawn) [FSM-30625] | – | – | – | – | – | – | – | – | – | – | – | – | – | – | – | > 32 µg/mL | > 32 µg/mL | – | – | – |
| CC[C@H]1OC(=O)[C@H](C)C(=O)[C@H](C)[C@@H](O[C@@H]2OC(C)CC(N(C)C)C2O)[C@](C)(OC)C[C@@H](C)CN[C@H](C)[C@H]2N(CCCn3cc(-c4cccc(N)c4)nn3)C(=O)O[C@]12C (stereo partly drawn) [FSM-40347] | 0.125 µg/mL (≈ 0.154 µM) | 32 µg/mL (≈ 39.3 µM) | > 32 µg/mL | > 32 µg/mL | 0.25 µg/mL (≈ 0.307 µM) | 0.5 µg/mL (≈ 0.614 µM) | 4 µg/mL (≈ 4.91 µM) | 8 µg/mL (≈ 9.83 µM) | 0.25 µg/mL (≈ 0.307 µM) | 8 µg/mL (≈ 9.83 µM) | 2 µg/mL (≈ 2.46 µM) | 4 µg/mL (≈ 4.91 µM) | > 32 µg/mL | 4 µg/mL (≈ 4.91 µM) | 4 µg/mL (≈ 4.91 µM) | – | – | 2 µg/mL (≈ 2.46 µM) | 8 µg/mL (≈ 9.83 µM) | – |
| CC[C@H]1OC(=O)[C@H](C)C(=O)[C@H](C)[C@@H](O[C@@H]2OC(C)CC(N(C)C)C2O)[C@](C)(OC)C[C@@H](C)CN[C@H](C)[C@H]2N(CCCCCn3cc(-c4ccccn4)nn3)C(=O)O[C@]12C (stereo partly drawn) [FSM-40350] | – | – | – | – | – | – | – | – | – | – | – | – | – | – | – | – | – | 2 µg/mL (≈ 2.42 µM) | 16 µg/mL (≈ 19.3 µM) | – |
| CC[C@H]1OC(=O)[C@H](C)C(=O)[C@H](C)[C@@H](O[C@@H]2OC(C)CC(N(C)C)C2O)[C@](C)(OC)C[C@@H](C)CN[C@H](C)[C@H]2N(CCCCCn3cc(-c4cccc(N)c4)nn3)C(=O)O[C@]12C (stereo partly drawn) [FSM-40349] | 0.125 µg/mL (≈ 0.148 µM) | 2 µg/mL (≈ 2.38 µM) | > 32 µg/mL | > 32 µg/mL | ≤ 0.0625 µg/mL | 0.5 µg/mL (≈ 0.594 µM) | 2 µg/mL (≈ 2.38 µM) | 8 µg/mL (≈ 9.5 µM) | 0.125 µg/mL (≈ 0.148 µM) | 32 µg/mL (≈ 38 µM) | 2 µg/mL (≈ 2.38 µM) | 1 µg/mL (≈ 1.19 µM) | > 32 µg/mL | 1 µg/mL (≈ 1.19 µM) | 2 µg/mL (≈ 2.38 µM) | – | – | 2 µg/mL (≈ 2.38 µM) | 16 µg/mL (≈ 19 µM) | – |
| CC[C@H]1OC(=O)[C@H](C)C(=O)[C@H](C)[C@@H](O[C@@H]2OC(C)CC(N(C)C)C2O)[C@](C)(OC)CCN[C@H](C)[C@H]2N(CCCCn3cc(-c4cccc(N)c4)nn3)C(=O)O[C@]12C (stereo partly drawn) [FSM-30622] | > 32 µg/mL | > 32 µg/mL | > 32 µg/mL | > 32 µg/mL | > 32 µg/mL | > 32 µg/mL | > 32 µg/mL | > 32 µg/mL | > 32 µg/mL | > 32 µg/mL | > 32 µg/mL | > 32 µg/mL | > 32 µg/mL | > 32 µg/mL | > 32 µg/mL | > 32 µg/mL | > 32 µg/mL | – | – | – |

The next lines start with results.

| MIC [1, 10] | MIC [1, 11] | MIC [1, 12] | MIC [1, 13] | MIC [1, 14] | MIC [2, 15] | MIC [2, 16] | MIC [3] | MIC [4] | MIC [5] | MIC [6] | MIC [7, 17] | MIC [7, 18] | MIC [7, 19] | MIC [7, 20] | MIC [8, 21] | MIC [9, 22] | MIC [8, 23] | MIC [9, 24] | Compound | also measured |
| --- | --- | --- | --- | --- | --- | --- | --- | --- | --- | --- | --- | --- | --- | --- | --- | --- | --- | --- | --- | --- |
| 0.25 µg/mL (≈ 0.293 µM) | 8 µg/mL (≈ 9.37 µM) | > 32 µg/mL | > 32 µg/mL | 1 µg/mL (≈ 1.17 µM) | 2 µg/mL (≈ 2.34 µM) | 8 µg/mL (≈ 9.37 µM) | 16 µg/mL (≈ 18.7 µM) | 1 µg/mL (≈ 1.17 µM) | 32 µg/mL (≈ 37.5 µM) | 4 µg/mL (≈ 4.68 µM) | 4 µg/mL (≈ 4.68 µM) | > 32 µg/mL | 4 µg/mL (≈ 4.68 µM) | 8 µg/mL (≈ 9.37 µM) | 2 µg/mL (≈ 2.34 µM) | 4 µg/mL (≈ 4.68 µM) | – | – | C=CC[C@H]1C(=O)O[C@H](CC)[C@@]2(C)OC(=O)N(CCCCn3cc(-c4cccc(N)c4)nn3)[C@@H]2[C@@H](C)NC[C@H](C)C[C@@](C)(OC)[C@H](O[C@@H]2OC(C)CC(N(C)C)C2O)[C@@H](C)C1=O (stereo partly drawn) [FSM-56156] | – |
| – | – | – | – | – | – | – | – | – | – | – | – | – | – | – | 8 µg/mL (≈ 8.85 µM) | 32 µg/mL (≈ 35.4 µM) | – | – | CC[C@H]1OC(=O)[C@H](Cc2ccccc2)C(=O)[C@H](C)[C@@H](O[C@@H]2OC(C)CC(N(C)C)C2O)[C@](C)(OC)C[C@@H](C)CN[C@H](C)[C@H]2N(CCCCn3cc(-c4cccc(N)c4)nn3)C(=O)O[C@]12C (stereo partly drawn) [FSM-56158] | – |
| – | – | – | – | – | – | – | – | – | – | – | – | – | – | – | 16 µg/mL (≈ 20 µM) | 32 µg/mL (≈ 40 µM) | – | – | CC[C@H]1OC(=O)CC(=O)[C@H](C)[C@@H](O[C@@H]2OC(C)CC(N(C)C)C2O)[C@](C)(OC)C[C@@H](C)CN[C@H](C)[C@H]2N(CCCCn3cc(-c4ccccn4)nn3)C(=O)O[C@]12C (stereo partly drawn) [FSM-56139] | – |
| 0.5 µg/mL (≈ 0.614 µM) | > 32 µg/mL | > 32 µg/mL | > 32 µg/mL | 1 µg/mL (≈ 1.23 µM) | 1 µg/mL (≈ 1.23 µM) | 4 µg/mL (≈ 4.91 µM) | 8 µg/mL (≈ 9.83 µM) | 0.5 µg/mL (≈ 0.614 µM) | 32 µg/mL (≈ 39.3 µM) | 2 µg/mL (≈ 2.46 µM) | 4 µg/mL (≈ 4.91 µM) | > 32 µg/mL | 4 µg/mL (≈ 4.91 µM) | 8 µg/mL (≈ 9.83 µM) | 4 µg/mL (≈ 4.91 µM) | 8 µg/mL (≈ 9.83 µM) | – | – | CC[C@H]1OC(=O)CC(=O)[C@H](C)[C@@H](O[C@@H]2OC(C)CC(N(C)C)C2O)[C@](C)(OC)C[C@@H](C)CN[C@H](C)[C@H]2N(CCCCn3cc(-c4cccc(N)c4)nn3)C(=O)O[C@]12C (stereo partly drawn) [FSM-56133] | – |
